Data taken from patent US5783557A, “THF-γ2 analogs and pharmaceutical compositions comprising them” (Yeda Research and Development Company Ltd at Weizmann …, priority 1993, dated 1998).
No end group written: not given here. *: point of attachment. iodo = iodine substituent on Tyr (iodo-Tyr), I*

Columns and labels:
[1] = test system: mouse spleen cells; assay: ConA-induced IL-2 production; type: cell-based; design: key: +++: strong enhancement, as THF-γ2; ++ and +: medium and weak enhancement, lower than THF-γ2; ++ and +: medium and weak enhancement, lower than THF-γ2; --no activity; details: graded against THF-γ2; Example 1, section 1.1
Protocol: 1.1. ConA-Induced IL-2 Production
In this bioassay, the effect of THF-γ2 and its analogs in enhancing the secretion of ConA-induced IL-2 from murine spleen cells is determined.
1.1.1. Preparation of cells and preincubation with THF-γ2. Pooled spleen cells (10^7 cell/ml) from five female C3B6F1 (C3HeB/FeJ×C57BL/6J) mice (obtained from Jackson Labs, U.S.A.) aged 6-8 weeks are seeded in 24-well plates (Costar, Cambridge, Mass, U.S.A.). The cells are prepared in medium RPMI-1640 supplemented with penicillin (100 u/ml), streptomycin (100 μg/ml), 2 mM glutamine, 50 μM 2-mercaptoethanol (2-ME) and 20 mM HEPES. THF-γ2 in various concentrations in phosphate buffered saline (PBS), is added in 20 μl aliquots, while control cultures receive 20 μl PBS. The cell cultures are incubated for 20 h in a humidified incubator of 5% CO2 /95% air and 37° C.
1.1.2. Induction of IL-2. ConA (Concanavalin A, ConA, 3×crystalline, Bio-Makor, Ness-Ziona, Israel) is added to the wells in 1 ml fresh medium (as in 1.1.1 above) at suboptimal concentration (1-2.5 μ/ml). […]
1.1.3. […] After incubation of 48 h at 37° C./5% CO2, the proliferation is assessed by the MTT colorimetric assay (T. Mosmann, J. Immunol. Methods 65: 55-63, 1983). Results are expressed in units/ml calculated using a standard murine IL-2 preparation (according to S. Gillis et al., J. Immunol. 120: 2027, 1978).

[2] = test system: GM-CFC from mouse bone marrow; assay: Effect on GM-CFC from mouse bone marrow; type: cell-based; design: key: +++: strong enhancement, as THF-γ2; ++ and +: medium and weak enhancement, lower than THF-γ2; ++ and +: medium and weak enhancement, lower than THF-γ2; --no activity; details: graded against THF-γ2; Example 1, section 1.2
Protocol: 1.2. Effect of THF-γ2 on GM-CFC From Mouse Bone Marrow. In this second bioassay, the effect of THF-γ2 and its analogs in the enhancement of the number of colonies of GM-CFC in the presence of growth factors is determined. 1.2.1. […] Tibia and femur were removed from BALB/c female mice (6-8 weeks old). The tip of the bone was cut and DMEM with 2.5% FCS was flushed into the bone using a 1 ml syringe with a 26 G needle. This procedure was repeated twice, the cells were then washed in medium and counted in the presence of trypan blue. 1.2.2 Preincubation with THF-γ2. Bone marrow cells suspension was prepared in DMEM with 2.5% FCS at a concentration of 15×10^6 /3.0 ml. THFγ2 diluted in DMEM was added in 20 μl aliquots, control cells received 20 μl DMEM. Cell suspensions in conical tissue culture tubes were incubated at 37° C./8% CO2 for 1 h. Cells were then collected, washed and counted in trypan blue. Cell suspensions were adjusted at 1×10^6 /ml. 1.2.3. GM-CFC assay. Bone marrow cells (4×10^5) are suspended in methylcellulose (0.8%), FCS (20%) and conditioned medium of 14FIL3 CB6 cell line (5%) in a total volume of 4 ml of DMEM. After vigorous mixing, the suspension is seeded into 30 mm diameter plates with the aid of a 3.0 ml syringe (21G needle, in triplicate). […] Colonies are counted using an inverted microscope at low magnification.

[3] = test system: murine cytomegalovirus (MCMV); details: MCMV-infected mice; cited from earlier work
[4] = test system: patients with reduced circulating T cells; details: 4 ng/kg/day i.m., 18 injections in 3 weeks; cited from earlier work
[5] = test system: viral infections of the herpes group; details: four patients, same protocol as the pilot study; cited from earlier work

Row | Substance | IL-2: Enhancement of ConA induced IL2 production in mouse spleen cells [1] | GM-CFC: Enhancement of the number of GMCFC from mouse bone marrow [2] | interferon synthesis and NK cytotoxicity [3] | side effects [4] | side effects [5]
1 | Iodo-Tyr-Leu-Glu-Asp-Gly-Pro-Lys-Phe-Leu (Y(iodo)LEDGPKFL) [iodo-Y^-1 -THF-γ2] | ++ | - |  |  | 
2 | LEDGPKFL [THF-γ2, Leu-Glu-Asp-Gly-Pro-Lys-Phe-Leu] |  |  | did not affect | No side effects attributable to synthetic THF-γ2 were observed | no deleterious side effects were documented
